In patent KR20230138688A, “Halenaquinol sulfate를 유효성분으로 포함하는 베타아밀로이드 응집으로 유발되는 질환의 예방 또는 치료용 약학적 조성물” (priority 2022, dated 2023):

Assays:
[1] = molecular target: T1, beta-amyloid Aβ42 aggregates (베타아밀로이드 응집체) (Homo sapiens, UniProt P05067); test: Disaggregation of preformed beta-amyloid (Aβ42) aggregates, Thioflavin T fluorescence; format: biochemical; conditions: Aβ42 pre-incubated 24 h, then 24 h with compound at 37 °C; Aβ42 10 μM; ThT 45 μM
T1 construct: Amyloid β 1-42 (Aβ42) 단백질은 DMSO에 1 mM으로 녹여

[2] = tested on: inhibition of synaptic plasticity (LTP) by beta-amyloid (베타아밀로이드에 의한 시냅스 가소성(LTP) 억제); test: Improvement of beta-amyloid-induced inhibition of synaptic plasticity (LTP), electrophysiology in hippocampal slices; conditions: ICR mouse hippocampal slices; halenaquinol sulfate 10 μM 30 min, then with oligomeric beta-amyloid 1 μM for 2 h; HFS
[3] = molecular target: T2, beta-amyloid Aβ42 (베타아밀로이드(Aβ)42) (Homo sapiens, UniProt P05067); test: Inhibition of beta-amyloid (Aβ42) aggregation, Thioflavin T fluorescence; format: biochemical; conditions: Aβ42 10 μM; 37 °C, 24 h; ThT 45 μM; 485 nm / 528 nm
T2 construct: Amyloid β 1-42 (Aβ42) 단백질은 DMSO에 1 mM으로 녹여

[4] = molecular target: Acetylcholinesterase (AChE) (Electrophorus electricus, UniProt O42275); test: Acetylcholinesterase (AChE) inhibition, Ellman method; format: biochemical; conditions: acetylthiocholine substrate, DTNB, 405 nm, pH 8.2
Chain of Acetylcholinesterase (AChE) (O42275 whole entry): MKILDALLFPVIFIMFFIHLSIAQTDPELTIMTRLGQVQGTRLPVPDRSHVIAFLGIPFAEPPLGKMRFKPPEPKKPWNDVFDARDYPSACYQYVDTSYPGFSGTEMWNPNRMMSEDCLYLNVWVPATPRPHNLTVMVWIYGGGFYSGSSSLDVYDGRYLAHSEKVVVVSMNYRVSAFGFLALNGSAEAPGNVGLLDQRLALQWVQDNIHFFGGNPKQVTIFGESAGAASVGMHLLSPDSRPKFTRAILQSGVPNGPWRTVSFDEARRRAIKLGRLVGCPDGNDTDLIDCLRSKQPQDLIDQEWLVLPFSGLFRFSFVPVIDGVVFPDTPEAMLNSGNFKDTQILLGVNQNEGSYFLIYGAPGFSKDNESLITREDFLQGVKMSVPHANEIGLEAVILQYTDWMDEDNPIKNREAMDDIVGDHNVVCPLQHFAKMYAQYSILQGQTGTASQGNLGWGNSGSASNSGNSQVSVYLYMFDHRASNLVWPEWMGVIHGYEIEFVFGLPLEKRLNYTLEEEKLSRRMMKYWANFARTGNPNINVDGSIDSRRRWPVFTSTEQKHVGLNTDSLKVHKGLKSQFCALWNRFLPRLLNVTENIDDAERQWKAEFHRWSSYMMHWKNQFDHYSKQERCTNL

T2 sequence (P05067 672-713): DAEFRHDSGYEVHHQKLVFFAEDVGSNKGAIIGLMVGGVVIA
T1 sequence (P05067 672-713): as above

## Halenaquinol sulfate
[1]
  disaggregation of already aggregated beta-amyloid: 농도 의존적으로 이미 응집된 베타아밀로이드 응집체를 분해함
[2]
  suppression of the effect of oligomeric beta-amyloid on LTP: 베타아밀로이드의 효과를 유의적으로 억제
[3]
  inhibitory activity against beta-amyloid aggregation: 농도 의존적으로 베타아밀로이드(10 μM)의 응집에 대해 저해활성
[4]
  IC50: 17.9 µM
  inhibition of acetylcholinesterase activity: 농도의존적으로 acetylcholinesterase 활성을 저해
